Laboratory results published in ChEMBL document CHEMBL5331069, “Potential of glycyrrhizic and glycyrrhetinic acids against influenza type A and B viruses: A perspective to develop new anti-influenza compounds and drug delivery systems” (Eur J Med Chem, 2023).
Values after ≈ are worked out from the molar mass of the structure shown.

Key:
Influenza A virus [1] = test: Antiviral activity against influenza A virus A/WSN/33(H1N1) infected in BALB/c mouse assessed as log reduction in viral load in lungs at 5 mg/kg administered intranasally for 5 days; type: functional; conditions: route nas, time 5 day
Influenza A virus [2] = test: Antiviral activity against Influenza A virus A/Aichi/2/68(H3N2) infected in MDCK cells assessed as inhibition of virus-induced cytopathicity; type: functional, organism-based
[3] = Cytotoxicity against MDCK cells assessed as reduction in cell viability incubated for 48 hrs; type: toxicity, cell-based, Canis lupus familiaris; conditions: dog
[4] = Cytotoxicity against MDCK cells assessed as reduction in cell viability incubated for 72 hrs by MTT assay; type: toxicity, cell-based, Canis lupus familiaris; conditions: dog
Influenza A virus [5] = test: Antiviral activity against influenza A virus A/Pert/16/09(H3N2) infected in MDCK cells assessed as reduction in viral titer by agglutination assay; type: functional, organism-based
Influenza A virus [6] = test: Antiviral activity against influenza A virus A/California/07/09(H1N1)pdm09 infected in MDCK cells assessed as reduction in viral titer by agglutination assay; type: functional, organism-based; conditions: A/California/07/09(H1N1)pdm09, MDCK
Influenza A virus [7] = test: Antiviral activity against influenza A virus A/NIBRG/14/H5N1 infected in MDCK cells assessed as reduction in viral titer by agglutination assay; type: functional, organism-based; conditions: A/NIBRG/14/H5N1, MDCK
Influenza B virus = test: Antiviral activity against influenza B virus B/Brisben/60/08 infected in MDCK cells assessed as reduction in viral titer by agglutination assay; type: functional, organism-based; conditions: B/Brisben/60/08, MDCK
Influenza A virus [8] = test: Antiviral activity against influenza A virus H1N1/pdm09 infected in MDCK cells assessed as reduction in viral titer preincubated with compound for 1 hr followed by virus infection incubated for 48 hrs followed by addition of chicken erythrocytes measured after 40 mins by hemagglutination assay; type: functional, organism-based
[9] = Cytotoxicity against MDCK cells assessed as reduction in cell viability incubated for 48 hrs by MTT assay; type: toxicity, cell-based, Canis lupus familiaris; conditions: dog
[10] = Cytotoxicity against MDCK cells assessed as reduction in cell viability incubated for 48 hrs by CellTiter-Glo assay; type: toxicity, cell-based, Canis lupus familiaris; conditions: dog
Influenza A virus [11] = test: Antiviral activity against Influenza A virus A/WSN/33(H1N1) infected in MDCK cells assessed as inhibition of virus-induced cytopathic effect incubated for 48 hrs by CellTiter-Glo assay; type: functional, organism-based
[12] = Oral bioavailability in rat; type: ADME, organism-based; conditions: in vivo
[13] = Water solubility of the compound by shake flask method; type: physicochemical; conditions: buffer
[14] = Water solubility of the compound; type: physicochemical

COC(=O)[C@@]1(C)CC[C@]2(C)CC[C@]3(C)[C@H](C(=O)C=C4[C@@]5(C)C=C(C#N)C(=O)C(C)(C)[C@@H]5CC[C@]43C)[C@@H]2C1
log(activity) (Influenza A virus [1]): 2.3

CC1(C)[C@@H](SCCS[C@@H]2O[C@H](C(=O)O)[C@@H](O)[C@H](O)[C@H]2O)CC[C@]2(C)[C@H]3C(=O)C=C4[C@@H]5C[C@@](C)(C(=O)O)CC[C@]5(C)CC[C@@]4(C)[C@]3(C)CC[C@@H]12
IC50 (Influenza A virus [2]): 54 µg/mL (≈ 74.7 µM)
CC50 at 48 h [3]: > 250 µg/mL

COC(=O)[C@H]1O[C@@H](SCCN(C(C)=O)[C@H]2CC[C@]3(C)[C@H]4C(=O)C=C5[C@@H]6C[C@@](C)(C(=O)O)CC[C@]6(C)CC[C@@]5(C)[C@]4(C)CC[C@H]3C2(C)C)[C@H](O)[C@@H](O)[C@@H]1O
IC50 (Influenza A virus [2]): 72.1 µg/mL (≈ 94.6 µM)
CC50 at 48 h [3]: > 75 µg/mL

CCOC(=O)C(Cc1c[nH]c2ccccc12)NC(=O)[C@H]1O[C@@H](O[C@H]2[C@H](O[C@H]3CC[C@]4(C)[C@H]5C(=O)C=C6[C@@H]7C[C@@](C)(C(=O)NC(Cc8c[nH]c9ccccc89)C(=O)OCC)CC[C@]7(C)CC[C@@]6(C)[C@]5(C)CC[C@H]4C3(C)C)O[C@H](C(=O)NC(Cc3c[nH]c4ccccc34)C(=O)OCC)[C@@H](O)[C@@H]2O)[C@H](O)[C@@H](O)[C@@H]1O (stereo partly drawn)
CC50 at 72 h [4]: > 500 µg/mL
EC50 (Influenza A virus [5]): 33 µg/mL (≈ 22.5 µM)
EC50 (Influenza A virus [6]): 44.5 µg/mL (≈ 30.4 µM)
EC50 (Influenza A virus [7]): 17.5 µg/mL (≈ 11.9 µM)
EC50 (Influenza B virus): 50 µg/mL (≈ 34.1 µM)

COC(=O)C(Cc1c[nH]c2ccccc12)NC(=O)[C@H]1O[C@@H](O[C@H]2[C@H](O[C@H]3CC[C@]4(C)[C@H]5C(=O)C=C6[C@@H]7C[C@@](C)(C(=O)NC(Cc8c[nH]c9ccccc89)C(=O)OC)CC[C@]7(C)CC[C@@]6(C)[C@]5(C)CC[C@H]4C3(C)C)O[C@H](C(=O)NC(Cc3c[nH]c4ccccc34)C(=O)OC)[C@@H](O)[C@@H]2O)[C@H](O)[C@@H](O)[C@@H]1O (stereo partly drawn)
CC50 at 72 h [4]: 620 µg/mL (≈ 435 µM)
EC50 (Influenza A virus [5]): 74.4 µg/mL (≈ 52.3 µM)
EC50 (Influenza A virus [6]): 20.7 µg/mL (≈ 14.5 µM)

COC(=O)CCCCCNC(=O)[C@H]1O[C@@H](O[C@H]2[C@H](O[C@H]3CC[C@]4(C)[C@H]5C(=O)C=C6[C@@H]7C[C@@](C)(C(=O)O)CC[C@]7(C)CC[C@@]6(C)[C@]5(C)CC[C@H]4C3(C)C)O[C@H](C(=O)NCCCCCC(=O)OC)[C@@H](O)[C@@H]2O)[C@H](O)[C@@H](O)[C@@H]1O
EC50 (Influenza A virus [8]): 12.7 µg/mL (≈ 11.8 µM)
CC50 at 48 h [9]: 408 µg/mL (≈ 379 µM)

CC(=O)N(CCS[C@@H]1O[C@H](C(=O)O)[C@@H](O)[C@H](O)[C@H]1O)[C@H]1CC[C@]2(C)[C@H]3C(=O)C=C4[C@@H]5C[C@@](C)(C(=O)O)CC[C@]5(C)CC[C@@]4(C)[C@]3(C)CC[C@H]2C1(C)C
IC50 (Influenza A virus [2]): 87 µg/mL (≈ 116 µM)
CC50 at 48 h [3]: > 250 µg/mL

CC(=O)O[C@@H]1[C@@H](OC(C)=O)[C@H]2O[C@H]3[C@H](OC(C)=O)[C@@H](OC(C)=O)[C@@H](O[C@H]4[C@H](OC(C)=O)[C@@H](OC(C)=O)[C@@H](O[C@H]5[C@H](OC(C)=O)[C@@H](OC(C)=O)[C@@H](O[C@H]6[C@H](OC(C)=O)[C@@H](OC(C)=O)[C@@H](O[C@H]7[C@H](OC(C)=O)[C@@H](OC(C)=O)[C@@H](O[C@H]8[C@H](OC(C)=O)[C@@H](OC(C)=O)[C@@H](O[C@@H]1[C@@H](Cn1cc(CN9CCN(CCNC(=O)[C@@]%10(C)CC[C@]%11(C)CC[C@]%12(C)C(=CC(=O)[C@@H]%13[C@@]%14(C)CC[C@H](O)C(C)(C)[C@@H]%14CC[C@]%13%12C)[C@@H]%11C%10)CC9)nn1)O2)O[C@@H]8Cn1cc(CN2CCN(CCNC(=O)[C@@]8(C)CC[C@]9(C)CC[C@]%10(C)C(=CC(=O)[C@@H]%11[C@@]%12(C)CC[C@H](O)C(C)(C)[C@@H]%12CC[C@]%11%10C)[C@@H]9C8)CC2)nn1)O[C@@H]7Cn1cc(CN2CCN(CCNC(=O)[C@@]7(C)CC[C@]8(C)CC[C@]9(C)C(=CC(=O)[C@@H]%10[C@@]%11(C)CC[C@H](O)C(C)(C)[C@@H]%11CC[C@]%109C)[C@@H]8C7)CC2)nn1)O[C@@H]6Cn1cc(CN2CCN(CCNC(=O)[C@@]6(C)CC[C@]7(C)CC[C@]8(C)C(=CC(=O)[C@@H]9[C@@]%10(C)CC[C@H](O)C(C)(C)[C@@H]%10CC[C@]98C)[C@@H]7C6)CC2)nn1)O[C@@H]5Cn1cc(CN2CCN(CCNC(=O)[C@@]5(C)CC[C@]6(C)CC[C@]7(C)C(=CC(=O)[C@@H]8[C@@]9(C)CC[C@H](O)C(C)(C)[C@@H]9CC[C@]87C)[C@@H]6C5)CC2)nn1)O[C@@H]4Cn1cc(CN2CCN(CCNC(=O)[C@@]4(C)CC[C@]5(C)CC[C@]6(C)C(=CC(=O)[C@@H]7[C@@]8(C)CC[C@H](O)C(C)(C)[C@@H]8CC[C@]76C)[C@@H]5C4)CC2)nn1)O[C@@H]3Cn1cc(CN2CCN(CCNC(=O)[C@@]3(C)CC[C@]4(C)CC[C@]5(C)C(=CC(=O)[C@@H]6[C@@]7(C)CC[C@H](O)C(C)(C)[C@@H]7CC[C@]65C)[C@@H]4C3)CC2)nn1
CC50 at 48 h [10]: > 100000 nM
IC50 (Influenza A virus [11]): 2860 nM

O=c1cc(-c2ccccc2)oc2cc(O)c(O)c(O)c12 [BAICALEIN]
bioavailability [12]: 2.2%
solubility [13]: 0.15 µg/mL (≈ 0.555 µM)

CC1(C)[C@@H](O)CC[C@]2(C)[C@H]3C(=O)C=C4[C@@H]5C[C@@](C)(C(=O)O)CC[C@]5(C)CC[C@@]4(C)[C@]3(C)CC[C@@H]12 [ENOXOLONE]
CC50 at 48 h [3]: 7.4 µg/mL (≈ 15.7 µM)
solubility [14]: < 10 µg/mL
